The text below walks through data of US20130331266A1, “METHOD FOR CONTROLLING WEEDS IN PADDY RICE CULTIVATION” (SUMITOMO CHEMICAL COMPANY, LIMITED, priority 2011, published 2013).

Structures are written as SMILES.

Common to all, as to assay type: in vivo
The subject of assay [1] is Echinochloa oryzicola. The assay can be described thus: Pot test Example 3: herbicidal effect on Echinochloa oryzicola, spray on drained soil then flooding. The note with it: score 0-100, 25 g/ha, 4th leaf stage, evaluated 2 weeks after application. How it is done:
(§1) In Examples of the method of the present invention, a criterion for evaluating a herbicidal effect is as follows.
A 1/10000-are pot was filled with a paddy field soil, and then water was added thereto followed by soil puddling. After draining, a pre-germinated Echinochloa oryzicola was sown, and then grown in a glasshouse. Sixteen (16) days after the sowing when Echinochloa oryzicola had the 4th leaves, each water-diluted solution containing 112 ppm of Compound 2 or Compound 3 was applied by spraying on the surface of the pot with a sprayer so that each amount of Compound 2 and Compound 3 as listed in Table 3 was applied. Each water-diluted solution of Compound 2 and Compound 3 was prepared by dissolving a given amount of Compound 2 or Compound 3 in acetone containing 2% (w/v) of Tween 20, followed by diluting the resulting solution with water so that the concentration of acetone was 10% by volume. When applying the water-diluted solution, the soil was well drained. The pot was flooded with water to a depth of 5 cm on the day of the application of the herbicide, the next day of the application of the herbicide, 3 days after the application of the herbicide, or 7 days after the application of the herbicide. And then, the plant was grown in the glasshouse.
Two (2) weeks after the application of the herbicide, the herbicidal effect on Echinochloa oryzicola was evaluated.

A further assay relates to Leptochloa chinenisis. The assay can be described thus: Pot test Example 5: herbicidal effect on Leptochloa chinenisis, spray at 0.5 cm water then flooding. The conditions noted are these: score 0-100, 100 g/ha, second or third leaf stage, evaluated 2 weeks after application. The protocol: as §1
A 1/10000-are Wagner pot was filled with a paddy field soil, and then water was added thereto followed by soil puddling. After draining, a pre-germinated Leptochloa chinenisis was sown, and then grown in a glasshouse. Sixteen (16) days after the sowing when Leptochloa chinenisis had the second or third leaves, each water-diluted solution containing 50 ppm of Compound 1, Compound 2, or Compound 3 was applied by spraying on the surface of the pot with a sprayer so that each amount of Compound 1, Compound 2, and Compound 3 as listed in Table 4 was applied. When applying the water-diluted solution, the pot was flooded to a depth of 0.5 cm. The pot was flooded with water to a depth of 4 cm or 2 cm on the next day of the application of the herbicide or 5 days after the application of the herbicide. And then, the plant was grown in the glasshouse.
Two (2) weeks after the application of the herbicide, the herbicidal effect on Leptochloa chinenisis was evaluated.

Assay [2] concerns Echinochloa oryzicola. The assay can be described thus: Pot test Example 2: herbicidal effect on Echinochloa oryzicola, spray on drained soil then flooding. The note with it: score 0-100, 25 g/ha, 4th leaf stage, evaluated 4 weeks after application. The protocol: as §1
(§2) A 1/10000-are pot was filled with a paddy field soil, and then water was added thereto followed by soil puddling. After draining, a pre-germinated Echinochloa oryzicola was sown, and then grown in a glasshouse. Sixteen (16) days after the sowing when Echinochloa oryzicola had the 4th leaves, a water-diluted solution (112 ppm of Compound 1) a flowable containing 10% Compound 1 was applied by spraying on the surface of the pot with a sprayer so that the amount of Compound 1 as listed in Table 2 was applied. When applying with the water-diluted solution, the soil was well drained. The pot was flooded with water to a depth of 5 cm on the day of the application of the herbicide, the next day of the application of the herbicide, or 3 days after the application of the herbicide. And then, the plant was grown in the glasshouse. Four (4) weeks after the application of the herbicide, the herbicidal effect on Echinochloa oryzicola was evaluated.

For assay [3], the system named is Echinochloa oryzicola. Description: Pot test Example 1: herbicidal effect on Echinochloa oryzicola, spray on drained soil then flooding. The conditions noted are these: score 0-100, 30 g/ha, 4th leaf stage, evaluated 4 weeks after application. The protocol:
as §1
as §2, with “1/5000-are Wagner” for “1/10000-are”, “Fourteen (14)” for “Sixteen (16)”, “(134” for “(112”, “1) of” for “1)”, “1” for “2”, “applying” for “applying with”

The mark [4] stands for this setting: flooded to 5 cm 3 days after treatment.
Where [5] appears, read: flooded to 5 cm 7 days after treatment.
Setting [6] is: flooded to 5 cm on day of treatment.
[7] abbreviates: flooded to 5 cm on next day of treatment.
Where [8] appears, read: flooded 5 days after treatment, depth 4 cm.
Setting [9] is: flooded next day of treatment, depth 2 cm.
[10] abbreviates: flooded next day of treatment, depth 4 cm.

As for `COCc1cccc(C(O)c2nc(OC)cc(OC)n2)c1NS(=O)(=O)C(F)F` (racemic) [Compound 2, (RS)-2′-[(4,6-Dimethoxypyrimidin-2-yl)(hydroxy)methyl]-1,1-difluoro-6′-(methoxymethyl)methanesulfonanilide], the “Herbicidal effect on Echinochloa oryzicola” value came out at 90 in the assay on Echinochloa oryzicola [1] (setting [4]), 80 in the assay on Echinochloa oryzicola [1] (setting [5]), 89 in the assay on Echinochloa oryzicola [1] (setting [6]) and 92 with Echinochloa oryzicola [1] (setting [7]). Further, the “Herbicidal effect on Leptochloa chinenisis” value in the assay with Leptochloa chinenisis (setting [8]) is on record as 80; with Leptochloa chinenisis (setting [9]), 80; with Leptochloa chinenisis (setting [10]) it was 90.

Regarding `COc1cc(OC)nc(NC(=O)NS(=O)(=O)c2c(C3=NOCC(C)O3)c(Cl)nn2C)n1` (racemic) [Compound 3, 1-{3-Chloro-1-methyl-4-[(5RS)-5,6-dihydro-5-methyl-1,4,2-dioxazin-3-yl]pyrazol-5-ylsulfonyl}-3-(4,6-dimethoxypyrimidin-2-yl)urea], the “Herbicidal effect on Echinochloa oryzicola” value in the assay with Echinochloa oryzicola [1] (setting [4]) is reported as 75; with Echinochloa oryzicola [1] (setting [5]) it was 75; in the assay with Echinochloa oryzicola [1] (setting [6]), 83; in the assay with Echinochloa oryzicola [1] (setting [7]), 83. The “Herbicidal effect on Leptochloa chinenisis” value is 60 in the assay on Leptochloa chinenisis (setting [8]) and 90 in the assay with Leptochloa chinenisis (setting [10]).

Regarding `CCCc1ccc2nc(Cl)c(S(=O)(=O)NC(=O)Nc3nc(OC)cc(OC)n3)n2n1` [Compound 1, 1-(2-Chloro-6-propylimidazo[1,2-b]pyridazin-3-ylsulfonyl)-3-(4,6-dimethoxypyrimidin-2-yl)urea], the “Herbicidal effect on Echinochloa oryzicola” value amounted to 85 in the assay with Echinochloa oryzicola [2] (setting [4]); 88 in the assay with Echinochloa oryzicola [2] (setting [6]); 93 with Echinochloa oryzicola [2] (setting [7]); 90 with Echinochloa oryzicola [3] (setting [4]); 96 with Echinochloa oryzicola [3] (setting [6]); 97 in the assay with Echinochloa oryzicola [3] (setting [7]). The “Herbicidal effect on Leptochloa chinenisis” value in the assay on Leptochloa chinenisis (setting [8]) turned out to be 75; in the assay on Leptochloa chinenisis (setting [9]), 75; in the assay on Leptochloa chinenisis (setting [10]) it was 90.
